The subject of test [1] is Rhizopus. The test is described as follows: Antifungal activity against Rhizopus sp. ATCC 2842 after 72 to 96 hrs by two fold serial dilution method. The class given is functional.
The subject of test [2] is Fusarium oxysporum. The test is described as follows: Antifungal activity against Fusarium oxysporum ATCC 48112 after 72 to 96 hrs by two fold serial dilution method. The test is classed as functional.
Test [3] has as its system Bacillus subtilis. The test can be described thus: Antibacterial activity against Bacillus subtilis ATCC 530 after 24 hrs by two fold serial dilution method. The following applies: ATCC 530, 24 h. The test is classed as functional.
Test [4] relates to Escherichia coli. The test is described as follows: Antibacterial activity against Escherichia coli ATCC 26032 after 24 hrs by two fold serial dilution method. The class given is functional. To be noted: ATCC 26032, 24 h.
The subject of test [5] is Aspergillus niger. The test is described as follows: Antifungal activity against Aspergillus niger ATCC 635 after 72 to 96 hrs by two fold serial dilution method. The test is classed as functional.
Test [6] relates to Pseudomonas. The test is described as follows: Antibacterial activity against Pseudomonas ATCC 27853 after 24 hrs by two fold serial dilution method. The class given is functional. To be noted: ATCC 27853, 24 h.
The subject of test [7] is Aspergillus flavus. The test can be described thus: Antifungal activity against Aspergillus flavus ATCC 525 after 72 to 96 hrs by two fold serial dilution method. The class given is functional.
Test [8] deals with Penicillium chrysogenum. The test is described as follows: Antifungal activity against Penicillium chrysogenum ATCC 28089 after 72 to 96 hrs by two fold serial dilution method. The class given is functional.
The subject of test [9] is Salmonella typhi. The test can be described thus: Antibacterial activity against Salmonella typhi ATCC 25021 after 24 hrs by two fold serial dilution method. The class given is functional, Salmonella enterica subsp. enterica serovar Typhi. To be noted: Salmonella enterica, ATCC 25021, 24 h.
For test [10], the system named is Staphylococcus aureus. The test is described as follows: Antibacterial activity against Staphylococcus aureus ATCC 25930 after 24 hrs by two fold serial dilution method. The class given is functional. To be noted: ATCC 25930, 24 h.

Converted amounts (≈) assume the structure as drawn.

Broadly, the MIC is the smallest concentration in the dilution series that meets the test's criterion for growth inhibition. Read a low MIC as a more susceptible organism. As to `C=CCN1[C@@H](c2ccccc2)CC(=O)C[C@H]1c1ccccc1`, the MIC stood at 50 µg/mL (≈ 172 µM) in test [1]; 100 µg/mL (≈ 343 µM) in test [2]; 100 µg/mL (≈ 343 µM) in test [3]; 200 µg/mL (≈ 686 µM) in [4]; 25 µg/mL (≈ 85.8 µM) in test [5]; 25 µg/mL (≈ 85.8 µM) in test [6]. The MIC in test [7] came out at 100 µg/mL (≈ 343 µM); in [8], 12.5 µg/mL (≈ 42.9 µM); in [9], 50 µg/mL (≈ 172 µM); in [10], 6.25 µg/mL (≈ 21.4 µM).
For `C=CCN1[C@H](c2ccccc2)[C@@H](C)C(=O)[C@@H](C)[C@@H]1c1ccccc1`, the MIC stood at 200 µg/mL (≈ 626 µM) in [1]; 50 µg/mL (≈ 157 µM) in test [2]; 25 µg/mL (≈ 78.3 µM) in [3]; 100 µg/mL (≈ 313 µM) in test [4]; 100 µg/mL (≈ 313 µM) in test [5]; 50 µg/mL (≈ 157 µM) in [6]. Besides, the MIC is 100 µg/mL (≈ 313 µM) in test [7], 50 µg/mL (≈ 157 µM) in test [8], 100 µg/mL (≈ 313 µM) in test [9] and 12.5 µg/mL (≈ 39.1 µM) in [10].
With `C=CCN1[C@H](c2ccccc2)[C@@H](C)/C(=N/O)[C@@H](C)[C@@H]1c1ccccc1` (relative stereo), the MIC in test [1] is 200 µg/mL (≈ 598 µM); in test [2], 50 µg/mL (≈ 149 µM); in test [3], 25 µg/mL (≈ 74.7 µM); in test [4], 50 µg/mL (≈ 149 µM); in [5], 50 µg/mL (≈ 149 µM); in test [6], 50 µg/mL (≈ 149 µM). Moreover, the minimal inhibitory concentration (MIC) amounted to 100 µg/mL (≈ 299 µM) in test [7], 100 µg/mL (≈ 299 µM) in test [8], 100 µg/mL (≈ 299 µM) in test [9] and 50 µg/mL (≈ 149 µM) in test [10].
Turning to `C=CCN1[C@H](c2ccccc2)C/C(=N\O)[C@@H](CC)[C@@H]1c1ccccc1` (relative stereo), the MIC in test [1] was 50 µg/mL (≈ 149 µM); in test [2], 25 µg/mL (≈ 74.7 µM); in [3], 12.5 µg/mL (≈ 37.4 µM); in test [4] it was 100 µg/mL (≈ 299 µM); in test [5], 12.5 µg/mL (≈ 37.4 µM); in test [6], 50 µg/mL (≈ 149 µM). In addition, the MIC was determined as 6.25 µg/mL (≈ 18.7 µM) in test [7], 50 µg/mL (≈ 149 µM) in [8], 25 µg/mL (≈ 74.7 µM) in test [9] and 25 µg/mL (≈ 74.7 µM) in test [10].
Take `C=CCN1[C@@H](c2ccccc2)C(C)(C)/C(=N/O)C[C@H]1c1ccccc1` (relative stereo): the MIC is 25 µg/mL (≈ 74.7 µM) in test [1]; 50 µg/mL (≈ 149 µM) in [2]; 25 µg/mL (≈ 74.7 µM) in test [3]; 100 µg/mL (≈ 299 µM) in test [4]; 25 µg/mL (≈ 74.7 µM) in test [5]; 50 µg/mL (≈ 149 µM) in test [6]. The MIC in test [7] was 25 µg/mL (≈ 74.7 µM); in test [8], 12.5 µg/mL (≈ 37.4 µM); in test [9] it was 100 µg/mL (≈ 299 µM); in test [10], 12.5 µg/mL (≈ 37.4 µM).
`C=CCN1[C@H](c2ccccc2)C/C(=N\OCc2ccccc2)[C@@H](C)[C@@H]1c1ccccc1` (relative stereo): the MIC in test [1] was 25 µg/mL (≈ 60.9 µM); in [2], 200 µg/mL (≈ 487 µM); in test [3], 6.25 µg/mL (≈ 15.2 µM); in test [4], 25 µg/mL (≈ 60.9 µM); in test [5], 50 µg/mL (≈ 122 µM); in test [6] it was 50 µg/mL (≈ 122 µM). Moreover, the minimal inhibitory concentration (MIC) in test [7] turned out to be 50 µg/mL (≈ 122 µM); in test [8] it was 100 µg/mL (≈ 244 µM); in test [9], 12.5 µg/mL (≈ 30.4 µM); in test [10], 50 µg/mL (≈ 122 µM).
With `C=CCN1[C@H](c2ccc(C)cc2)C/C(=N\OCc2ccccc2)[C@@H](C)[C@@H]1c1ccc(C)cc1` (relative stereo), the minimal inhibitory concentration (MIC) in test [1] was 50 µg/mL (≈ 114 µM); in [2] it was 100 µg/mL (≈ 228 µM); in test [3] it was 50 µg/mL (≈ 114 µM); in test [4], 200 µg/mL (≈ 456 µM); in [5], 12.5 µg/mL (≈ 28.5 µM); in [6] it was 100 µg/mL (≈ 228 µM). The MIC in test [7] came to 100 µg/mL (≈ 228 µM); in test [8], 6.25 µg/mL (≈ 14.2 µM); in test [9] it was 50 µg/mL (≈ 114 µM); in test [10] it was 100 µg/mL (≈ 228 µM).
Consider `C=CCN1[C@H](c2ccc(Cl)cc2)C/C(=N\OCc2ccccc2)[C@@H](C)[C@@H]1c1ccc(Cl)cc1` (relative stereo), for which the MIC turned out to be 6.25 µg/mL (≈ 13 µM) in test [1]; 25 µg/mL (≈ 52.1 µM) in [2]; 25 µg/mL (≈ 52.1 µM) in test [3]; 12.5 µg/mL (≈ 26.1 µM) in test [4]; 25 µg/mL (≈ 52.1 µM) in test [5]; 100 µg/mL (≈ 209 µM) in test [6]. The minimum inhibitory concentration (MIC) in test [7] was found to be 12.5 µg/mL (≈ 26.1 µM); in test [8], 6.25 µg/mL (≈ 13 µM); in test [9], 50 µg/mL (≈ 104 µM); in test [10], 6.25 µg/mL (≈ 13 µM).
Take `C=CCN1[C@H](c2ccc(OC)cc2)C/C(=N\OCc2ccccc2)[C@@H](C)[C@@H]1c1ccc(OC)cc1` (relative stereo): the MIC in test [1] was determined as 25 µg/mL (≈ 53.1 µM); in test [2] it was 6.25 µg/mL (≈ 13.3 µM); in test [3] it was 50 µg/mL (≈ 106 µM); in test [4], 100 µg/mL (≈ 212 µM); in [5], 12.5 µg/mL (≈ 26.6 µM); in test [6], 6.25 µg/mL (≈ 13.3 µM). Also, the MIC in test [7] was 100 µg/mL (≈ 212 µM); in test [8], 50 µg/mL (≈ 106 µM); in test [9] it was 25 µg/mL (≈ 53.1 µM); in test [10] it was 12.5 µg/mL (≈ 26.6 µM).
Take `C=CCN1[C@@H](c2ccccc2)C/C(=N/OCc2ccccc2)C[C@H]1c1ccccc1` (relative stereo): the MIC in test [1] amounted to 50 µg/mL (≈ 126 µM); in [2] it was 50 µg/mL (≈ 126 µM); in [3], 25 µg/mL (≈ 63 µM); in [4], 6.25 µg/mL (≈ 15.8 µM); in [5], 12.5 µg/mL (≈ 31.5 µM); in test [6], 200 µg/mL (≈ 504 µM). The MIC came out at 100 µg/mL (≈ 252 µM) in test [7], 100 µg/mL (≈ 252 µM) in test [8], 100 µg/mL (≈ 252 µM) in test [9] and 50 µg/mL (≈ 126 µM) in test [10].
As for `C=CCN1[C@H](c2ccccc2)[C@@H](C)/C(=N/OCc2ccccc2)[C@@H](C)[C@@H]1c1ccccc1` (relative stereo), the MIC was determined as 100 µg/mL (≈ 236 µM) in [1]; 50 µg/mL (≈ 118 µM) in test [2]; 100 µg/mL (≈ 236 µM) in test [3]; 100 µg/mL (≈ 236 µM) in test [4]; 200 µg/mL (≈ 471 µM) in test [5]; 25 µg/mL (≈ 58.9 µM) in test [6]. The MIC in [7] stood at 100 µg/mL (≈ 236 µM); in test [8], 50 µg/mL (≈ 118 µM); in test [9] it was 50 µg/mL (≈ 118 µM); in test [10], 12.5 µg/mL (≈ 29.4 µM).
Take `C=CCN1[C@H](c2ccccc2)C/C(=N\OCc2ccccc2)[C@@H](CC)[C@@H]1c1ccccc1` (relative stereo): the MIC in [1] was found to be 12.5 µg/mL (≈ 29.4 µM); in test [2] it was 25 µg/mL (≈ 58.9 µM); in [3] it was 50 µg/mL (≈ 118 µM); in test [4], 6.25 µg/mL (≈ 14.7 µM); in test [5], 50 µg/mL (≈ 118 µM); in test [6], 100 µg/mL (≈ 236 µM). The MIC in [7] was found to be 100 µg/mL (≈ 236 µM); in test [8], 12.5 µg/mL (≈ 29.4 µM); in test [9], 25 µg/mL (≈ 58.9 µM); in test [10] it was 200 µg/mL (≈ 471 µM).
Turning to `C=CCN1[C@@H](c2ccccc2)C(C)(C)/C(=N/OCc2ccccc2)C[C@H]1c1ccccc1` (relative stereo), the MIC in [1] was 50 µg/mL (≈ 118 µM); in test [2], 12.5 µg/mL (≈ 29.4 µM); in [3] it was 6.25 µg/mL (≈ 14.7 µM); in test [4], 50 µg/mL (≈ 118 µM); in test [5] it was 25 µg/mL (≈ 58.9 µM); in [6], 25 µg/mL (≈ 58.9 µM). Further, the MIC in test [7] amounted to 12.5 µg/mL (≈ 29.4 µM); in [8] it was 6.25 µg/mL (≈ 14.7 µM); in test [9] it was 12.5 µg/mL (≈ 29.4 µM); in test [10] it was 50 µg/mL (≈ 118 µM).
On to `C[C@@H]1[C@H](O)[C@@H](C)/C=C/C=C/C=C/C=C/C=C/C=C/C=C/[C@H](O[C@@H]2O[C@H](C)[C@@H](O)[C@H](N)[C@@H]2O)C[C@@H]2O[C@](O)(C[C@@H](O)C[C@@H](O)[C@H](O)CC[C@@H](O)C[C@@H](O)CC(=O)O[C@H]1C)C[C@H](O)[C@H]2C(=O)O` [AMPHOTERICIN B], for which the MIC in test [1] came out at 25 µg/mL (≈ 27.1 µM); in test [2] it was 50 µg/mL (≈ 54.1 µM); in [5], 50 µg/mL (≈ 54.1 µM); in test [7], 50 µg/mL (≈ 54.1 µM); in [8] it was 12.5 µg/mL (≈ 13.5 µM).
As for `CN[C@@H]1[C@H](O[C@H]2[C@H](O[C@H]3[C@H](O)[C@@H](O)[C@H](N=C(N)N)[C@@H](O)[C@@H]3N=C(N)N)O[C@@H](C)[C@]2(O)C=O)O[C@@H](CO)[C@H](O)[C@H]1O` [STREPTOMYCIN], the MIC in test [3] is 12.5 µg/mL (≈ 21.5 µM); in [4], 12.5 µg/mL (≈ 21.5 µM); in test [6], 25 µg/mL (≈ 43 µM); in test [9], 50 µg/mL (≈ 86 µM); in test [10] it was 50 µg/mL (≈ 86 µM).

The record behind these values is ChEMBL document CHEMBL2157909, “Design, synthesis, spectral and biological evaluation of novel 1-allyl substituted 2,6-diphenylpiperidin-4-ones and its derivatives of oximes/oxime ethers” (2012).
